Measurements published in article PMC7927014, “Novel Small Molecule Hsp90/Cdc37 Interface Inhibitors Indirectly Target K-Ras-Signaling” (Cancers, 2021).

System: H-RasG12V nanoclustering
Assay: H-RasG12V nanoclustering-FRET (FLIM-FRET) in HEK cells
Assay type: cell-based
Conditions: 24 h, conglobatin A 2 μM, salinomycin 1.3 μM, CAY10585 10 μM
Description: In total, 80,000 HEK cells were seeded in 12-well plates containing sterilized 16-mm coverslips and 1 mL medium. The next day, the cells were transfected using jetPRIME or FuGENE HD transfection reagent. For the donor fluorophore-only samples, the cells were transfected with 500 ng mGFP-tagged RasG12V plasmid. For the nanoclustering-FRET pair samples, the cells were transfected with both the donor and acceptor constructs, i.e., pmGFP- and pmCherry- RasG12V at a plasmid ratio of 1:3, respectively, and a total of 800 ng plasmids. The next day, the cells were treated with either 0.1% DMSO vehicle control or the indicated concentrations of compounds diluted in DMEM or RPMI medium for 24 h. For the gene silencing studies, the cells were transfected with the indicated amounts of siRNAs, together with the FRET pair constructs. The plasmids and siRNA were diluted in the same jetPRIME transfection buffer, followed by the addition of jetPRIME. After 48 h of transfection, the cells were fixed in 4% paraformaldehyde for 10 to 15 min, before being mounted onto slides with Mowiol 4–88 (cat. no. 81381, Sigma-Aldrich). The lifetime of the mGFP donor fluorophore was measured using a fluorescence microscope (Zeiss AXIO Observer D1) equipped with a fluorescence lifetime imaging attachment (Lambert Instruments), as described previously in detail. The apparent FRET efficiency (Eapp) was calculated as Eapp = (1 − τDA/τD) × 100%, with the measured fluorescence lifetimes τDA of the FRET sample and the τD of the donor-only sample.

C/C1=C\[C@H](C)C[C@H](C)[C@H](Cc2cnco2)OC(=O)/C(C)=C/[C@H](C)C[C@H](C)[C@H](Cc2cnco2)OC1=O [conglobatin A, reference compound]
H-RasG12V nanoclustering-FRET: not H-RasG12V-nanoclustering
